Results from patent publication US11071730B2, “Substituted 6-azabenzimidazole compounds” (Gilead Sciences, Inc., priority 2018, dated 2021).

Biological target: human HPK1 (MAP4K1) (Homo sapiens (Human), UniProt Q92918)
Test: HPK1 IC50 Assay (TR-FRET biochemical kinase assay, STK S1 peptide substrate)
Conditions: recombinant human HPK1 kinase domain 0.15 nM, 10 μM ATP, 1 μM STK S1 peptide; geometric mean
Outline: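 Pre-activated recombinant kinase domain (insect cells; 0.15 nM) pre-incubated with compounds for 15 min, then 10 μM ATP and 1 μM STK S1 peptide added for 3 h at 25 °C in BES pH 7.0. Phosphorylation read by HTRF (665/620 nm). IC50 from four-parameter fits normalized to staurosporine/DMSO controls, geometric mean of repeats.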

human HPK1 (MAP4K1), sequence (Q92918 17-274): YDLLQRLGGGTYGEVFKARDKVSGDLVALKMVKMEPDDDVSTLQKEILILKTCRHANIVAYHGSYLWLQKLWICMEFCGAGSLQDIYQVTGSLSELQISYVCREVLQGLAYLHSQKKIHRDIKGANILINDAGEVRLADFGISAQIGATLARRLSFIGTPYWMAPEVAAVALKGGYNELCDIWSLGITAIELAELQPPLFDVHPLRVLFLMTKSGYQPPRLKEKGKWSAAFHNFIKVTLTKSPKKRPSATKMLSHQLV

| SMILES | IC50 [nM] |
| --- | --- |
| CC(C)n1cnc2cc(-c3ccc4c(c3)N([C@H]3C[C@@H](N5CCCCC5)C3)C(=O)C43CCN(C(=O)C(C)(C)CO)CC3)nc(Nc3ccncc3F)c21 [Example 106, 6-(4-((3-fluoropyridin-4-yl)amino)-3-isopropyl-3H-imidazo[4,5-c]pyridin-6-yl)-1′-(3-hydroxy-2,2-dimethylpropanoyl)-1-((1s,3s)-3-(piperidin-1-yl)cyclobutyl)spiro[indoline-3,4′-piperidin]-2-one] | 0.3 |
| CO[C@@H](C)C(=O)N1CCC2(CC1)C(=O)N([C@H]1C[C@@H](N3CCCCC3)C1)c1cc(-c3cc4ncn(C(C)C)c4c(Nc4ccncc4F)n3)ccc12 [Example 152] | 0.5 |
| CC(C)n1cnc2cc(-c3ccc4c(c3)N([C@H]3C[C@@H](N5CC6CCC(C6)C5)C3)C(=O)C43CCN(C(=O)CO)CC3)nc(Nc3ccncc3F)c21 [Example 128] | 0.07 |
| CC(C)n1cnc2cc(-c3ccc4c(c3)N([C@H]3C[C@@H](N5C[C@H]6CC[C@H]6C5)C3)C(=O)C43CCN(C(=O)C4(C)COC4)CC3)nc(Nc3ccncc3F)c21 [Example 110] | 0.2 |
| CNC(=O)c1ccc(F)c(Nc2nc(-c3ccc4c(c3)N([C@H]3C[C@@H](N5CCCCC5)C3)C(=O)C4(C)C)cc3ncn(C(C)C)c23)n1 [Example 104] | 1.4 |

Now from value to molecule:

| IC50 [nM] | SMILES |
| --- | --- |
| 9.6 | CNC(=O)c1cc(Nc2nc(-c3ccc4c(c3)N([C@H]3C[C@@H](N5CCCCC5)C3)C(=O)C4(C)C)cc3ncn(C(C)C)c23)ncc1C [Example 194, 2-((6-(3,3-dimethyl-2-oxo-1-((1s,3s)-3-(piperidin-1-yl)cyclobutyl)indolin-6-yl)-3-isopropyl-3H-imidazo[4,5-c]pyridin-4-yl)amino)-N,5-dimethylisonicotinamide] |
| 0.3 | CO[C@H](C)C(=O)N1CCC2(CC1)C(=O)N([C@H]1C[C@@H](N3CCCCC3)C1)c1cc(-c3cc4ncn(C(C)C)c4c(Nc4ccncc4F)n3)ccc12 [Example 153] |
| 0.4 | CC(C)n1cnc2cc(-c3ccc4c(c3)N([C@H]3C[C@@H](N5CCC(C)(C)C5)C3)C(=O)C43CCN(C(=O)c4ncon4)CC3)nc(Nc3ccncc3F)c21 [Example 160] |
| 0.1 | CC(=O)N1CCC2(CC1)C(=O)N([C@H]1C[C@@H](N3CC4CCC(C4)C3)C1)c1cc(-c3cc4ncn(C(C)C)c4c(Nc4cc(C)ncc4F)n3)ccc12 [Example 166] |

Same assay, conditions: recombinant human HPK1 kinase domain 0.15 nM, 10 μM ATP, 1 μM STK S1 peptide; geometric mean of multiple experiments

| SMILES | IC50 [nM] |
| --- | --- |
| CC(=O)N1CCC2(CC1)C(=O)N([C@H]1C[C@@H](N3CCCCC3)C1)c1cc(-c3cc4ncn(C(C)C)c4c(Nc4cc(C)ncc4F)n3)ccc12 [Example 31] | 1.1 |
| CC(C)n1cnc2cc(-c3ccc4c(c3)N([C@H]3C[C@@H](N5CCC(C)(C)C5)C3)C(=O)C43CCN(C(=O)[C@H]4OCC[C@H]4C)CC3)nc(Nc3ccncc3F)c21 [Example 19B, 1-((1s,3R)-3-(3,3-dimethylpyrrolidin-1-yl)cyclobutyl)-6-(4-((3-fluoropyridin-4-yl)amino)-3-isopropyl-3H-imidazo[4,5-c]pyridin-6-yl)-1′-((2S,3R)-3-methyltetrahydrofuran-2-carbonyl)spiro[indoline-3,4′-piperidin]-2-one] | 0.1 |
